Measured values from ChEMBL document CHEMBL5370648, “Rational Design of Bioorthogonally Activatable PROTAC for Tumor-Targeted Protein Degradation” (J Med Chem, 2023).
Calls of active or inactive are those of the source. The rule behind the calls is not given here.

Legend:
[1] = biological target: von Hippel-Lindau disease tumor suppressor/Bromodomain-containing protein 3 (Homo sapiens) (UniProt Q15059+P40337); assay: PROTAC activity at BRD3/VHL E3 ligase in 12 hrs BODIPY-TZ treated human MCF7 cells assessed as reduction in BRD3 expression at upto 2.0 uM incubated for 48 hrs by Western blot analysis; format: cell-based
von Hippel-Lindau disease tumor suppressor/Bromodomain-containing protein 3 (Homo sapiens), sequence (P40337 whole entry partner): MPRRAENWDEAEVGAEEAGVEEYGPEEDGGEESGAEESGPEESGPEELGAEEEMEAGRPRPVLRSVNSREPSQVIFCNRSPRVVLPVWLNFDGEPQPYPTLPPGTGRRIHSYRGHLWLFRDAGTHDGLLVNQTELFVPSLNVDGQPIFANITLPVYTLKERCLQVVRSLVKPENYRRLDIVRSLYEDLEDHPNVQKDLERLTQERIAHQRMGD
von Hippel-Lindau disease tumor suppressor/Bromodomain-containing protein 3 (Homo sapiens), sequence (Q15059 2-726 limits assumed): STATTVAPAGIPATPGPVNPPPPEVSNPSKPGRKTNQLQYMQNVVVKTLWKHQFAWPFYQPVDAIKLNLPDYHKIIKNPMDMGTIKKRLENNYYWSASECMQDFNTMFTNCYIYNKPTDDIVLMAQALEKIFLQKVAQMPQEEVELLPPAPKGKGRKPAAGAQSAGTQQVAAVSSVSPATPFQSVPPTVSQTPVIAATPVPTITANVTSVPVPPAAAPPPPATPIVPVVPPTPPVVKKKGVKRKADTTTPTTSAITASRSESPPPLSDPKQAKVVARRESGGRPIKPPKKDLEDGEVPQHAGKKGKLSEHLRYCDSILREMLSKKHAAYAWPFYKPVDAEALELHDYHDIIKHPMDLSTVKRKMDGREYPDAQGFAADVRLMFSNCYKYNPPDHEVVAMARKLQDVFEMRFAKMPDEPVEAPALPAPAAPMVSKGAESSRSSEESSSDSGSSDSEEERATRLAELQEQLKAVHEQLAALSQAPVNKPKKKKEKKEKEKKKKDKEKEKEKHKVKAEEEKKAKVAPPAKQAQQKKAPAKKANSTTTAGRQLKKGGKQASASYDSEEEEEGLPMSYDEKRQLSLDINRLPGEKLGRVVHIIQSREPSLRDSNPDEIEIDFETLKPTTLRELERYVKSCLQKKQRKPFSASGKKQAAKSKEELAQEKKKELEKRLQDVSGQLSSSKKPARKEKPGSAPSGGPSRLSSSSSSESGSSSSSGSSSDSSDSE

[2] = biological target: T1, von Hippel-Lindau disease tumor suppressor/Bromodomain-containing protein 4 (Homo sapiens, UniProt O60885+P40337); assay: PROTAC activity at BRD4/VHL E3 ligase in 12 hrs BODIPY-TZ treated human T47D cells assessed as degradation of BRD4 expression incubated for 48 hrs by Western blot analysis; format: cell-based
T1 sequence (P40337 whole entry, looked up, other chains not shown): as the sequence (P40337 whole entry partner) above

T47D = assay: Cytotoxicity against 12 hrs BODIPY-TZ treated human T47D cells assessed as inhbition of cell growth measured after 48 hrs by CCK-8 method; format: functional, cell-based
[3] = biological target: T1, von Hippel-Lindau disease tumor suppressor/Bromodomain-containing protein 4; assay: PROTAC activity at BRD4/VHL E3 ligase in 12 hrs BODIPY-TZ treated human MDA-MB-231 cells assessed as suppression of c-Myc expression incubated for 48 hrs by Western blot analysis; format: cell-based
MCF7 = assay: Antitumor activity against human MCF7 cells xenografted in BALB/c nude mouse assessed as fold increase in tumor volume at 20 mg/kg measured at day 23 post injection; format: functional; conditions: time 23 day
[4] = biological target: T1, von Hippel-Lindau disease tumor suppressor/Bromodomain-containing protein 4; assay: PROTAC activity at BRD4/VHL E3 ligase in human MCF7 cells assessed as induction of degradation of intracellular BRD4 at 200 nM incubated for 48 hrs by immunofluorescence staining assay; format: cell-based
[5] = biological target: T1, von Hippel-Lindau disease tumor suppressor/Bromodomain-containing protein 4; assay: PROTAC activity at BRD4/VHL E3 ligase in 12 hrs BODIPY-TZ treated human MDA-MB-231 cells assessed as reduction in BRD4 expression at upto 2.0 uM incubated for 48 hrs by Western blot analysis; format: cell-based
[6] = biological target: T1, von Hippel-Lindau disease tumor suppressor/Bromodomain-containing protein 4; assay: PROTAC activity at BRD4/VHL E3 ligase in 12 hrs BODIPY-TZ treated human MCF7 cells assessed as activation of caspase-3 expression incubated for 48 hrs by Western blot analysis; format: cell-based
[7] = biological target: T1, von Hippel-Lindau disease tumor suppressor/Bromodomain-containing protein 4; assay: PROTAC activity at BRD4/VHL E3 ligase in human MDA-MB-231 cells assessed as induction of degradation of intracellular BRD4 at 200 nM incubated for 48 hrs by immunofluorescence staining assay; format: cell-based

CC1=CC(C)=[N+]2C1=C(c1cccc(-c3nnc(C)nn3)c1)c1c(C)cc(C)n1[B-]2(F)F
Activity [1]: Active
Activity [2]: Active
IC50 (T47D): 407 nM
Activity [3]: Active
fold change (FC) (MCF7): 5.98
Activity [4]: inactive
Activity [5]: Active
Activity [6]: Active
Activity [7]: inactive
